“Also recorded” adds a separate entry of the source.
Columns and labels:
human T cells = test: Human T cell assays (summary); assay type: cell-based
Protocol: AHR plays a key role in immune cells and its' inhibition is proposed to reverse immune suppression and activate T cells. The ability of Compound A to inhibit AHR-dependent CYP1A1 expression and cytokine production was assessed in primary human T cells. AHR directly regulates the expression of the immune suppressive cytokine IL-22. Human T cells isolated from healthy donor PBMCs were activated with CD3/CD28 tetramer and incubated for 24 hours with Compound A. Cell pellets were processed for RNA isolation and CYP1A1 analysis by quantitative reverse-transcriptase polymerase chain reaction. For the cytokine analysis assay, CD3/CD28 activated T cells were treated with Compound A, and culture supernatants were collected after 48 hours for analysis of IL-22 levels using Meso Scale Discovery V-plex IL-22 plates. Compound A inhibited AHR-dependent gene expression in activated human T cells by decreasing expression of CYP1A1 in a concentration--dependent manner.

AHR = biological target: T1, AHR (Mus musculus, UniProt P30561); test: Pharmacodynamics: CYP1A1 mRNA in murine liver and spleen after VAG539; assay type: in vivo
T1 sequence (P30561 10-805): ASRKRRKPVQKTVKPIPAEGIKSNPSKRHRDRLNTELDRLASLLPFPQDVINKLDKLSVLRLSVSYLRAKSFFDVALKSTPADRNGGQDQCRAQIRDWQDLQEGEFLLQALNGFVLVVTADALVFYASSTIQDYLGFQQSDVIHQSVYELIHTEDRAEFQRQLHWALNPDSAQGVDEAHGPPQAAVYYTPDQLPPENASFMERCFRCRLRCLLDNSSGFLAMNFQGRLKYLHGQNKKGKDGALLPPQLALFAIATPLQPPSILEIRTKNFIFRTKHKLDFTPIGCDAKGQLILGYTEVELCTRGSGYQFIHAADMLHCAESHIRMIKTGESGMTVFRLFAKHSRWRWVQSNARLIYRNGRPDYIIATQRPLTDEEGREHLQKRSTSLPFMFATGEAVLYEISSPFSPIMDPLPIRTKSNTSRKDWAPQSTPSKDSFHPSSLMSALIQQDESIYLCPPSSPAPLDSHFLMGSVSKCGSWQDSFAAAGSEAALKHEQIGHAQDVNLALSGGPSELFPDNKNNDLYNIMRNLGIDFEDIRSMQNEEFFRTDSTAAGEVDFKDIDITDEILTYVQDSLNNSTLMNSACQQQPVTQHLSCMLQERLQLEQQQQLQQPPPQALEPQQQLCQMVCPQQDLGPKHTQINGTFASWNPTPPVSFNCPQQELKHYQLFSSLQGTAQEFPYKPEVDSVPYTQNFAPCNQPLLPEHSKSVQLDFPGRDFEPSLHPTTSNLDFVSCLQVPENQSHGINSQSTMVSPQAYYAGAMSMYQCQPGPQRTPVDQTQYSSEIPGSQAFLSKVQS

[1] = Levels of doxorubicin in plasma (UPLC); assay type: in vivo, mouse; details: day 28 after cell inoculation; FIG. 7
Protocol: To analyze the levels of doxorubicin in plasma, blood was collected using retro-orbital vein bleeding. Plasma was generated after centrifuging blood in dipotassium EDTA tubes for 10 min at 4° C. Plasma was transferred in new tubes and stored at −80° C.
Doxorubicin levels in plasma were analyzed by UPLC.
To determine whether Compound A treatment had any effects on doxorubicin metabolism, the levels of doxorubicin in plasma were analyzed on day 28 after cell inoculation.

[2] = Phase 1 study, safety of single agent dose escalation; assay type: in vivo; details: 200 mg, 400 mg, 800 mg, and 1200 mg QD, monotherapy, human patients
Source text: This is a first-in-human (FIH), open-label, multicenter, dose-escalation and expansion study to evaluate the safety, tolerability, PK, pharmacodynamics, and preliminary antitumor activity of Compound A administered orally (PO). There will be two arms: a single agent Compound A arm and a combination arm of Compound A with nivolumab in patients with advanced solid tumors and urothelial carcinoma. The Safety Review Committee (SRC) comprised of the enrolling study Investigators and the Sponsor will use the mTPI-2 design (Guo, 2017) and assess all safety data available to guide dose escalation and de-escalation decisions and subject enrollment for both arms. To assess evidence of preliminary antitumor activity in patients with urothelial carcinoma, a Simon 2-stage design (Simon, 1989) is used for both arms.
A baseline Screening period is followed by a by a Single-dose Run-in period (up to 7 days) to assess the PK of Compound A without food. The Single Agent treatment arm comprises daily oral administration of Compound A in the fed state. […]
Toxicity is evaluated according to National Cancer Institute Common Terminology Criteria for Adverse Events (AEs) (NCI-CTCAE) v5.0. […]

- inhibition of CYP1A1 mRNA induction, spleen (AHR; 25 mg/kg Compound A oral with VAG539, at 4 hours): complete inhibition
- inhibition of CYP1A1 mRNA increases induced by VAG539, liver (AHR; 25 mg/kg Compound A oral, coadministered with 30 mg/kg VAG539): Complete inhibition
Compound: CC(C)c1cnn2c(N[C@@H]3CCc4[nH]c5ccccc5c4C3)nc(-c3cncc(F)c3)nc12 [Compound A, (R)—N-(2-(5-fluoropyridin-3-yl)-8-isopropylpyrazolo[1,5-a][1,3,5]triazin-4-yl)-2,3,4,9-tetrahydro-1H-carbazol-3-amine]
- T cell state (human T cells): induces an activated T cell state
- pro-inflammatory cytokines, such as IL-2 and IL-9 (human T cells): increase
- effect of Compound A treatment on doxorubicin drug levels in plasma / metabolism of Doxil [1]: does not affect; also recorded: did not have any effect
- serious adverse events (SAEs) [2]: no serious adverse events; also recorded: without any drug-related serious adverse events

From patent publication US20240148740A1, “COMBINATION OF AN AHR INHIBITOR WITH A PDX INHIBITOR OR DOXORUBICINE” (Ikena Oncology, Inc., priority 2020, published 2024)
